Data on 16 compounds can be found in ChEMBL document CHEMBL5665443, “Enzyme Inhibitor Single Concentration assay results for EUbOPEN Chemogenomics Library” (2024).

The target in assay [1] is Endonuclease 8-like 1 (Homo sapiens) (UniProt Q96FI4). The conditions noted are these: Compound Concentration 10.0 uM, Hit No.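 Also: fluorescence at 594 nm from quenched duplex DNA oligonucleotides released by NEIL1 cleavage and strand separation, reported as reduction of this enzyme activity.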
Description: Inhibition of NEIL1 by quantifying inhibition of NEIL1-mediated cleavage and dissociation of quenched duplex DNA oligonucleotides, measured as fluorescence at 594 nm.
Assay [2] addresses T1, Adenine DNA glycosylase (Homo sapiens) (UniProt Q9UIF7).
T1 sequence (whole entry): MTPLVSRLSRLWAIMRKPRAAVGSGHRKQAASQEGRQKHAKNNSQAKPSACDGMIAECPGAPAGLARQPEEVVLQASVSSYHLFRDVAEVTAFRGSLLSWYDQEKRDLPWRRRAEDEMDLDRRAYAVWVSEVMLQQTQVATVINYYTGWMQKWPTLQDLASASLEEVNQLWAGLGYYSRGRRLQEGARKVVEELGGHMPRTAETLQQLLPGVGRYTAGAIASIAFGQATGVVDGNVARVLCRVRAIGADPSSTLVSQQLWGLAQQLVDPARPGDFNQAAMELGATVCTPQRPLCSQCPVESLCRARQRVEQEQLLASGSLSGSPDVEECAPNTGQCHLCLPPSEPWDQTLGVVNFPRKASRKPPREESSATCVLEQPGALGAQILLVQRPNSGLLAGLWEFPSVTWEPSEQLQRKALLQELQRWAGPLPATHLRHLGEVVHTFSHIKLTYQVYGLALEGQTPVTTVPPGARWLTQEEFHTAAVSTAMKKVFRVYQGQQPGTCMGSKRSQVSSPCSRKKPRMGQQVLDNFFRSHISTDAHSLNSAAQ
The conditions noted are these: Compound Concentration 10.0 uM, Hit No.
Description: Inhibition of MUTYH by quantifying inhibition of MUTYH-mediated cleavage and dissociation of quenched duplex DNA oligonucleotides, measured as fluorescence at 594 nm. To generate a functional strand incision and increase turn-over this assay is coupled to APE1.

The target in assay [3] is Uracil-DNA glycosylase (Homo sapiens) (UniProt P13051). The conditions noted are these: Compound Concentration 10.0 uM, Hit No.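 Also: UNG excision on a quenched double-stranded DNA oligo probe, with APE1 added for strand incision and turnover, read as fluorescence at 594 nm as strands separate.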
Uracil-DNA glycosylase (Homo sapiens), sequence (P13051 whole entry): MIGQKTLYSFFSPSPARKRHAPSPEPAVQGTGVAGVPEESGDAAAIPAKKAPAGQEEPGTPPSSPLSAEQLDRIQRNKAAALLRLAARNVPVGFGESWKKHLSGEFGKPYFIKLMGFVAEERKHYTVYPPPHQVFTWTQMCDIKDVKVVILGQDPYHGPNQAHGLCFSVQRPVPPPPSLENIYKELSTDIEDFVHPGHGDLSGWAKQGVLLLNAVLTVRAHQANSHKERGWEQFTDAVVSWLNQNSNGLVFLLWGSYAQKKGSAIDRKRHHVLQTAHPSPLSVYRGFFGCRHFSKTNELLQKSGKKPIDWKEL
Description: Inhibition of UNG by quantifying inhibition of UNG-mediated cleavage and dissociation of quenched duplex DNA oligonucleotides, measured as fluorescence at 594 nm. To generate a functional strand incision and increase turn-over this assay is coupled to APE1.
Assay [4] concerns the target DNA-3-methyladenine glycosylase (Homo sapiens) (UniProt P29372). The note with it: Compound Concentration 10.0 uM, Hit No.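 Also: enzyme assay where MPG cuts a quenched duplex DNA oligonucleotide probe, paired with APE1 for strand incision and turnover, read as fluorescence at 594 nm.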
Description: Inhibition of MPG by quantifying inhibition of MPG-mediated cleavage and dissociation of quenched duplex DNA oligonucleotides, measured as fluorescence at 594 nm. To generate a functional strand incision and increase turn-over this assay is coupled to APE1.
Assay [5] concerns the target T2, Endonuclease III-like protein 1 (Homo sapiens) (UniProt P78549).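 Also: enzyme assay tracking NTHL1 cutting and release of a quenched double-stranded DNA oligo substrate, read as fluorescence at 594 nm.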
T2 sequence (whole entry): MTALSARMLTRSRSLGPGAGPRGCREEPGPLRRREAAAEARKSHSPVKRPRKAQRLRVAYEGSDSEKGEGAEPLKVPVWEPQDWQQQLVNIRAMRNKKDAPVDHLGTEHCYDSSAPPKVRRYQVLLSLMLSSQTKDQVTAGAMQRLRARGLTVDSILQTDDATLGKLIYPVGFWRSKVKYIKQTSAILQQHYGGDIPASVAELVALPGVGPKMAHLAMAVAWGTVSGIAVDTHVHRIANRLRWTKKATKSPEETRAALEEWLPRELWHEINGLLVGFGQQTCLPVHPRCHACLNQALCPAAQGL
The conditions noted are these: Compound Concentration 10.0 uM, Hit No.
Description: Inhibition of NTHL1 by quantifying inhibition of NTHL1-mediated cleavage and dissociation of quenched duplex DNA oligonucleotides, measured as fluorescence at 594 nm.

Assay [6] concerns the target N-glycosylase/DNA lyase (Homo sapiens) (UniProt O15527). The note with it: Compound Concentration 10.0 uM, Hit No.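 Also: OGG1 cleavage of a quenched duplex DNA oligonucleotide, coupled to APE1 for strand incision, read as fluorescence at 594 nm.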
Description: Inhibition of OGG1 by quantifying inhibition of OGG1-mediated cleavage and dissociation of quenched duplex DNA oligonucleotides, measured as fluorescence at 594 nm. To generate a functional strand incision and increase turn-over this assay is coupled to APE1.
The target of assay [7] is G/T mismatch-specific thymine DNA glycosylase (Homo sapiens) (UniProt Q13569). The note with it: Compound Concentration 10.0 uM, Hit No.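 Also: human TDG cleavage of quenched duplex DNA oligonucleotides coupled to APE1, strand release read as fluorescence at 594 nm, inhibition of TDG activity.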
G/T mismatch-specific thymine DNA glycosylase (Homo sapiens), sequence (Q13569 whole entry, the tested form may be a part): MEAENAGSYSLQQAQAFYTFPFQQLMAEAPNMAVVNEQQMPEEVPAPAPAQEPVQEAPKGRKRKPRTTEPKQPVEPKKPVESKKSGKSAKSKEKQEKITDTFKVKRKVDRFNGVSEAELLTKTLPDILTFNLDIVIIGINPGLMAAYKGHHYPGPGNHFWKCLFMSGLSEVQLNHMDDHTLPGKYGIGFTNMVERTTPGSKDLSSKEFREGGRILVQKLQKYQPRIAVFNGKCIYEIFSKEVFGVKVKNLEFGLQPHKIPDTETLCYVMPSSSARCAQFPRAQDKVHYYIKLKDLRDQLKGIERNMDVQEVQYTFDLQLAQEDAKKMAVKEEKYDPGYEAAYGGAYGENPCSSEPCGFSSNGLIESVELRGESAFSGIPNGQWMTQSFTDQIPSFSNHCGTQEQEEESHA
Description: Inhibition of TDG by quantifying inhibition of TDG-mediated cleavage and dissociation of quenched duplex DNA oligonucleotides, measured as fluorescence at 594 nm. To generate a functional strand incision and increase turn-over this assay is coupled to APE1.
Assay [8] deals with Methyl-CpG-binding domain protein 4 (Homo sapiens) (UniProt O95243). The note with it: Compound Concentration 10.0 uM, Hit No.
Methyl-CpG-binding domain protein 4 (Homo sapiens), sequence (O95243 whole entry, the tested form may be a part): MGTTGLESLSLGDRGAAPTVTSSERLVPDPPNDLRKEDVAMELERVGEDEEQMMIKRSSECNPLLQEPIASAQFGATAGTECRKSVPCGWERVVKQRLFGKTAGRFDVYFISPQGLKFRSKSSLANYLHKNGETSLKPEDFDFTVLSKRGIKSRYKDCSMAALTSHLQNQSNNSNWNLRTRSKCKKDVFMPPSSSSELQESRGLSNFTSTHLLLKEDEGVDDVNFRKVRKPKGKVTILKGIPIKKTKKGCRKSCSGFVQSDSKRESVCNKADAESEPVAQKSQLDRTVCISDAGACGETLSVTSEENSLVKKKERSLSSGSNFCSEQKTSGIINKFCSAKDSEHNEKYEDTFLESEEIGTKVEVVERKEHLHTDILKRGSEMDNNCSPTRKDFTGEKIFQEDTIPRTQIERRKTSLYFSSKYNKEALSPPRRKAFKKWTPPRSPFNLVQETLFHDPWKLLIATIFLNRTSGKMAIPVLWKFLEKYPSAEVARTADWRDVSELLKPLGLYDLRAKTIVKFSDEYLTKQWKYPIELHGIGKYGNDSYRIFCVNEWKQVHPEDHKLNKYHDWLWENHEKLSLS
Description: Inhibition of MBD4 by quantifying inhibition of MBD4-mediated cleavage and dissociation of quenched duplex DNA oligonucleotides, measured as fluorescence at 594 nm. To generate a functional strand incision and increase turn-over this assay is coupled to APE1.
Assay [9] concerns the target T3, Endonuclease 8-like 2 (Homo sapiens) (UniProt Q969S2).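 Also: fluorescence at 594 nm reports NEIL2 cutting and release of a quenched double-stranded DNA oligo substrate, reduced signal read as inhibition.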
T3 sequence (whole entry): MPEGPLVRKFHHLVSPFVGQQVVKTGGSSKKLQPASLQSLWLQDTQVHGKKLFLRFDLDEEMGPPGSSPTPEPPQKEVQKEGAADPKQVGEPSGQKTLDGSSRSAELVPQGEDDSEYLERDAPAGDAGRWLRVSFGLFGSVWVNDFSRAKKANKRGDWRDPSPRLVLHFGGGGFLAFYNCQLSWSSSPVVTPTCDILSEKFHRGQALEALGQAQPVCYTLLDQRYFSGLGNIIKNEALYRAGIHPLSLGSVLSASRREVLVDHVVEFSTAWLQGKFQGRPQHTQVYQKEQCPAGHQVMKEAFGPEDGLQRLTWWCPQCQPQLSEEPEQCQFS
The note with it: Compound Concentration 10.0 uM.
Description: Inhibition of NEIL2 by quantifying inhibition of NEIL2-mediated cleavage and dissociation of quenched duplex DNA oligonucleotides, measured as fluorescence at 594 nm.

N-glycosylase/DNA lyase (Homo sapiens), sequence (O15527 whole entry): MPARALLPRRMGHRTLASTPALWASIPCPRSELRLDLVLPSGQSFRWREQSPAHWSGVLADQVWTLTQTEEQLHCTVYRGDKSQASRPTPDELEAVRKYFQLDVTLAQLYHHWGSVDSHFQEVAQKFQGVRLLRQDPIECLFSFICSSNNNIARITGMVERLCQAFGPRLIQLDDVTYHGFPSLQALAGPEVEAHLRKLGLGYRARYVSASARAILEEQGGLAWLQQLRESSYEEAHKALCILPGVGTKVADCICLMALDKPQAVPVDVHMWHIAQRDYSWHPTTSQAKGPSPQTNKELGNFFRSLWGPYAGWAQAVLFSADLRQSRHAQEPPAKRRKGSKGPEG
Endonuclease 8-like 1 (Homo sapiens), sequence (Q96FI4 whole entry): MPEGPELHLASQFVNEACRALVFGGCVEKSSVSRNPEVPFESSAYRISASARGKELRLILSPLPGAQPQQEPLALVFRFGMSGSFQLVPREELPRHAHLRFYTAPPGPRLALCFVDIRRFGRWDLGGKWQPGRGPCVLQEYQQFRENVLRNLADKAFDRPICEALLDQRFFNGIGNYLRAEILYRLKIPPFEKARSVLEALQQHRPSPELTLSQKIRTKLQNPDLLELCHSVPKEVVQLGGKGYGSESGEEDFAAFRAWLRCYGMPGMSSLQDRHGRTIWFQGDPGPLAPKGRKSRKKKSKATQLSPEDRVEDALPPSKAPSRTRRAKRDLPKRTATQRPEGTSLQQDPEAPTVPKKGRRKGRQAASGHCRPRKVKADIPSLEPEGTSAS
DNA-3-methyladenine glycosylase (Homo sapiens), sequence (P29372 whole entry): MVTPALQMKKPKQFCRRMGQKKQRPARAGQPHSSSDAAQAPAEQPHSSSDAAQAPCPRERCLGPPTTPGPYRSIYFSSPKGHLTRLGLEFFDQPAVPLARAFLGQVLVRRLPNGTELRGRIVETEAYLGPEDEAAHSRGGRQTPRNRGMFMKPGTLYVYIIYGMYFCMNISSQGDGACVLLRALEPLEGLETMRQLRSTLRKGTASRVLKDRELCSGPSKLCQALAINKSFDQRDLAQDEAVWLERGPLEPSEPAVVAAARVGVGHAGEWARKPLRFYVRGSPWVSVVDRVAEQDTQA

With `CCNC(=O)[C@H]1O[C@@H](n2cnc3c(N)nc(NCCc4ccc(CCC(=O)O)cc4)nc32)[C@H](O)[C@@H]1O`, the inhibition – broadly, the relative decrease from the control value, in per cent – is 3.42% in assay [1]; 11.8% in assay [2]; -6.16% in assay [3]; -2.22% in [4]; 1.39% in assay [5]; -9.97% in [6]. Besides, the inhibition in assay [7] was 0.161%; in [8], 17.2%; in assay [9] (Hit No), -6.46%.

Regarding `c1ccc(Cn2c(N3CCNCC3)nc3ccccc32)cc1`, the inhibition is 3.42% in assay [1]; 0.413% in assay [2]; -7.26% in [3]; 2.45% in assay [4]; 25.3% in [5]; -7.05% in [6]. Moreover, the inhibition in [7] is -3.94%; in assay [8], -1.45%; in assay [9] (Hit No), -2.13%.

In the case of `COc1cccc(OC)c1-c1cc(C(=O)NC2(C(=O)O)C3CC4CC(C3)CC2C4)nn1-c1ccnc2cc(Cl)ccc12` (stereo not drawn), the inhibition in assay [1] is -4.95%; in assay [2], 53.6%; in [3], -7.21%; in assay [4], 18.6%; in assay [5] it was 24.6%; in [6], 23.9%. Besides, the figures for the inhibition in assay [7], in [8] and in [9] (Hit No) were 45.2%, 44.5% and -7.72%, respectively.

With `O=C(O)CCCCCC[C@H]1C(=O)NC(=O)N1CCC(O)C1CCCCC1` (stereo partly drawn), the inhibition in assay [1] was -4.58%; in [2], 39.4%; in [3] it was -5.39%; in assay [4], -5.01%; in assay [5], 23.7%; in assay [6], -6.34%. Also, the inhibition in assay [7] was 11%; in [8], 9.44%; in assay [9] (Hit No), -1.37%.

As to `CN1CCc2cc(Cl)c(O)cc2[C@@H](c2ccccc2)C1`, the inhibition in assay [1] is -6.51%; in assay [2], 14.8%; in assay [3], -3.84%; in [4], 10.9%; in assay [5], 4.7%; in assay [6], -2.12%. Also, the inhibition in assay [7] stood at 3.73%; in assay [8], 14.5%; in [9] (Hit No) it was 3.22%.

As for `CC(C)C[C@H](NC(=O)[C@H](CC(N)=O)NC(=O)[C@@H]1CCCN1C(=O)[C@@H](N)C(C)C)C(=O)N1CCC[C@H]1C(=O)N[C@@H](CCC(N)=O)C(=O)N[C@@H](CCCNC(=N)N)C(=O)N[C@@H](Cc1ccccc1)C(N)=O`, the inhibition in assay [1] was 5.49%; in assay [2] it was -3.17%; in [3] it was -4.09%; in assay [4], 2.54%; in [5] it was 17.1%; in [6] it was -4.66%. Also, the values for the inhibition in [7], in [8] and in assay [9] (Hit No) were 4.58%, 7.14% and 4.75%, respectively.

Consider `COc1ccc(CC(=O)NC(N/C(=N/C#N)Nc2cccc3ncccc23)C(C)(C)C)cc1OC` (stereo not drawn), for which the inhibition in assay [1] is 3.12%; in assay [2], 7.91%; in assay [3], -5.2%; in assay [4], 7.8%; in assay [5], 16.2%; in [6], -8%. Further, the results for the inhibition in assay [7], in [8] and in [9] (Hit No) were 7.3%, -7.77% and 1.94%, respectively.

Take `CC1(C)CC(=O)c2c(SCCO)sc(-c3nccs3)c2C1`: the inhibition in [1] was -2.21%; in assay [2], 15.5%; in assay [3], -4.5%; in assay [4], 8.86%; in assay [5], 28.6%; in assay [6], -7.89%. Also, the inhibition came out at 13.8% in assay [7], 23.5% in [8] and 1.94% in assay [9] (Hit No).

As to `COc1cc2nc(N(C)CCCNC(=O)C3CCCO3)nc(N)c2cc1OC` (stereo not drawn), the inhibition in assay [1] was -3.84%; in [2], 34.2%; in assay [3], -4.94%; in assay [4] it was 21.4%; in assay [5] it was 27.8%; in [6], -9.24%. Besides, the inhibition amounted to 16.1% in [7], 25.4% in [8] and 32.3% in assay [9] (Hit Yes).

As to `CCCCC/C=C\C/C=C\C/C=C\C/C=C\CCCC(=O)OC(CO)CO`, the inhibition in assay [1] was 4.39%; in assay [2] it was 14.2%; in [3] it was -9.11%; in assay [4], 3.34%; in [5], 9.99%; in [6], 1.41%. Also, the inhibition is 27% in assay [7], 28.4% in assay [8] and 12% in assay [9] (Hit No).

As for `O=C(O)c1cccc(/C=C2/C[C@@H]3[C@@H](/C=C/[C@H](O)C4CCCCC4)[C@H](O)C[C@@H]3O2)c1`, the inhibition is -8.73% in [1]; 18.1% in assay [2]; -4.36% in assay [3]; 18.3% in assay [4]; 15.4% in [5]; -8.69% in assay [6]. Moreover, the inhibition was 21.2% in [7], 16.8% in assay [8] and -5.7% in assay [9] (Hit No).

`CCCN(CCC)[C@@H]1CCc2ccc3[nH]c(C#N)cc3c2C1`: the inhibition is -4.73% in assay [1]; 46.8% in assay [2]; -7.96% in assay [3]; 27.5% in assay [4]; -5.21% in assay [5]; 5.74% in [6]. The values for the inhibition in assay [7], in assay [8] and in [9] (Hit No) were 30%, 35.8% and 9.08%, respectively.

On to `Cc1cc(NC(=O)NCCN2CCC(O)(Cc3ccccc3)CC2)c2ccccc2n1`, for which the inhibition in assay [2] is 17.8%; in assay [3], -0.672%; in assay [4], -4.68%; in assay [5], -6.04%; in [6], -6.59%; in assay [7], 11.4%. The figures for the inhibition in assay [8] and in [9] (Hit No) were 28.9% and -1.88%, respectively.

Regarding `C[C@@H](Cn1c(=O)[nH]/c(=N\c2ccc(Oc3ccccn3)cc2)n(Cc2ccc(Cl)cc2)c1=O)C(=O)O`, the inhibition in assay [1] is 5.49%; in assay [2], 14.4%; in assay [3] it was -3.28%; in [4] it was 14.7%; in assay [5], 24.5%; in [6] it was -4.95%. The inhibition was 23.6% in [7], 25.3% in [8] and 5.25% in assay [9] (Hit No).

On to `CCCN(CCc1cccs1)[C@H]1CCc2c(O)cccc2C1`, for which the inhibition in [1] was -8.88%; in [2] it was 14.9%; in assay [3] it was -4.64%; in assay [4], 14.7%; in [5], 18.7%; in assay [6] it was -7.03%. Besides, the inhibition was 8.18% in assay [7], 27.8% in [8] and -1.88% in assay [9] (Hit No).

Regarding `CCCCCCCCCCCCCCC[C@@H](O)[C@@H](N)COP(=O)(O)O`, the inhibition is 6.76% in assay [1]; -9.71% in assay [2]; -5.95% in [3]; 9.63% in assay [4]; 5.59% in [5]; -0.598% in assay [6]. Also, the inhibition in assay [7] is 3%; in [8] it was -8.45%; in [9] (Hit No), 4.76%.
